Our source for the inhibition values is paper PMC11129182, “Development of Inhibitors, Probes, and PROTAC Provides a Complete Toolbox to Study PARK7 in the Living Cell” (Journal of Medicinal Chemistry, 2024).

SMILES strings stand for the structures.

The target of one assay is T1, PARK7 (Homo sapiens, UniProt Q99497).
T1 sequence (Q99497 1-189): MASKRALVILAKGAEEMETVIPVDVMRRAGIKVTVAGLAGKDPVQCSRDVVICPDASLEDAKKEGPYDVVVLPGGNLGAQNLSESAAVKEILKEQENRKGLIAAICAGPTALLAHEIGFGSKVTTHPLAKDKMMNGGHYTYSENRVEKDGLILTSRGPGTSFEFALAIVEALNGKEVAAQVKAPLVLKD
The assay can be described thus: High-throughput screen of the crude compound library, PARK7 fluorescence polarization (FP) assay with FP reagent JYQ-107. The format is biochemical. The conditions noted are these: 1.25 µM, crude compound library, FP reagent JYQ-107; read-out: HTS FP assay %Inhibition (1.25 µM). The source says: Therefore, taking JYQ-88 as a starting point, we conducted an optimization to further improve the molecule in terms of inhibitory potency, specificity, and cellular uptake. […] First, a small tailored library was designed and synthesized to investigate whether the introduction of larger, hydrophilic substituents on JYQ-88 would enhance the interaction with the PARK7 pocket. […] The second approach involved the generation of a compound library containing diverse substituents at the azidomethyl position. […] We next performed a high-throughput screen of this crude compound library using our in-house developed PARK7 fluorescence polarization (FP) assay.[15]
The term inhibition denotes the drop in the measured response relative to a control, in per cent. As to `Cc1n[nH]c(C)c1Cc1ccc(C(=O)N2CCc3nc(NC(=O)[C@@H]4CCN(C#N)C4)sc3C2)o1` [compound 363], the inhibition at 1.25 µM was 78.9%. With `CN1C(=O)C[C@@H](C(=O)N2CCc3nc(NC(=O)[C@@H]4CCN(C#N)C4)sc3C2)[C@@H]1c1cccnc1` [compound 429], the inhibition at 1.25 µM is 59.5%. `CC1=NN(c2cccc(Br)c2)C(=O)C1CC(=O)N1CCc2nc(NC(=O)[C@@H]3CCN(C#N)C3)sc2C1` (stereo partly drawn) [compound 364]: the inhibition at 1.25 µM was found to be 73%. As for `Cn1cc(-c2cc(C(=O)N3CCc4nc(NC(=O)[C@@H]5CCN(C#N)C5)sc4C3)no2)cn1` [compound 384], the inhibition at 1.25 µM was determined as 83%. Consider `N#CN1CC[C@@H](C(=O)Nc2nc3c(s2)CN(C(=O)c2ccccc2C=O)CC3)C1` [compound 432], for which the inhibition at 1.25 µM worked out at 57.9%. The same measure, in the same setting: as for `N#CN1CC[C@@H](C(=O)Nc2nc3c(s2)CN(C(=O)CCc2cccnc2)CC3)C1` [compound 445], the figure is 62.7%.

Consider `N#CN1CC[C@@H](C(=O)Nc2nc3c(s2)CN(C(=O)c2cc(S(=O)(=O)Nc4cccc(F)c4)ccc2F)CC3)C1` [compound 354], for which the inhibition at 1.25 µM came to 72.5%. On the same count and under the same terms, as for `N#CN1CC[C@@H](C(=O)Nc2nc3c(s2)CN(C(=O)C2CCCCN2S(=O)(=O)c2ccc(Br)s2)CC3)C1` (stereo partly drawn) [compound 377], the figure is 76.2%; as for `N#CN1CC[C@@H](C(=O)Nc2nc3c(s2)CN(C(=O)c2ccc(-c4ncon4)cc2)CC3)C1` [compound 379], 75.2%; as for `COCC(=O)N1CCc2nc(NC(=O)[C@@H]3CCN(C#N)C3)sc2C1` [compound 467], 67.9%. Still for that read-out and setting: as for `N#CN1CC[C@@H](C(=O)Nc2nc3c(s2)CN(C(=O)CCC2CCCCC2)CC3)C1` [compound 435], the figure is 78.3%. `N#CN1CC[C@@H](C(=O)Nc2nc3c(s2)CN(C(=O)c2ccc4cc5ccccc5cc4c2)CC3)C1` [compound 455]: the inhibition at 1.25 µM is 79.5%.

Regarding `N#CN1CC[C@@H](C(=O)Nc2nc3c(s2)CN(C(=O)c2ccccc2CCc2ccccc2)CC3)C1` [compound 413], the inhibition at 1.25 µM came to 79.7%.

With `Cc1cncc(C(=O)N2CCc3nc(NC(=O)[C@@H]4CCN(C#N)C4)sc3C2)c1` [compound 397], the inhibition at 1.25 µM was 68.5%.

Still in this assay, the particulars now being: 1.25 µM, crude compound library; read-out: HTS FP assay %Inhibition (1.25 µM).
For the compound `N#CN1CC[C@@H](C(=O)Nc2nc3c(s2)CN(C(=O)c2csc(-c4cnccn4)n2)CC3)C1` [compound 58], the inhibition at 1.25 µM is 74.4%. Same read-out and setting: as for `N#CN1CC[C@@H](C(=O)Nc2nc3c(s2)CN(C(=O)Cc2cccc(OCc4cccnc4)c2)CC3)C1` [compound 118], the figure is 83.7%; as for `N#CN1CC[C@@H](C(=O)Nc2nc3c(s2)CN(C(=O)c2occc2-c2ccccc2)CC3)C1` [compound 271], 81.3%.

`N#CN1CC[C@@H](C(=O)Nc2nc3c(s2)CN(C(=O)c2cnc(COc4ccccc4)s2)CC3)C1` [compound 70]: the inhibition at 1.25 µM was 85.9%. Turning to `N#CN1CC[C@@H](C(=O)Nc2nc3c(s2)CN(C(=O)CC(NS(=O)(=O)c2ccccc2)c2ccc(Cl)cc2)CC3)C1` (stereo partly drawn) [compound 54], the inhibition at 1.25 µM is 80.8%.

As for `Cn1cc(-c2cc[nH]n2)c(C(=O)N2CCc3nc(NC(=O)[C@@H]4CCN(C#N)C4)sc3C2)n1` [compound 187], the inhibition at 1.25 µM was found to be 59.2%.

For `N#CN1CC[C@@H](C(=O)Nc2nc3c(s2)CN(C(=O)c2ncoc2C2CC2)CC3)C1` [compound 28], the inhibition at 1.25 µM was found to be 85.7%. On to `CN(Cc1ccccc1)S(=O)(=O)c1ccc(C(=O)N2CCc3nc(NC(=O)[C@@H]4CCN(C#N)C4)sc3C2)cc1` [compound 183], for which the inhibition at 1.25 µM was found to be 65.5%.

On to `N#CN1CC[C@@H](C(=O)Nc2nc3c(s2)CN(C(=O)c2ccc(Oc4cccc(Cl)c4Cl)nn2)CC3)C1` [compound 60], for which the inhibition at 1.25 µM is 69.8%. The same measure, in the same setting: as for `N#CN1CC[C@@H](C(=O)Nc2nc3c(s2)CN(C(=O)CC2CCN(c4ccc(C(F)(F)F)cn4)CC2)CC3)C1` [compound 291], the figure is 79.8%; as for `N#CN1CC[C@@H](C(=O)Nc2nc3c(s2)CN(C(=O)c2ccc(Cn4cccn4)s2)CC3)C1` [compound 272], 83.3%; as for `N#CN1CC[C@@H](C(=O)Nc2nc3c(s2)CN(C(=O)Cc2cccc(OCc4ccccn4)c2)CC3)C1` [compound 74], 82.1%.

Turning to `Cc1nc(COc2ccc(C(=O)N3CCc4nc(NC(=O)[C@@H]5CCN(C#N)C5)sc4C3)cc2)no1` [compound 192], the inhibition at 1.25 µM was 84.8%. Consider `N#CN1CC[C@@H](C(=O)Nc2nc3c(s2)CN(C(=O)C2CC4C=CC2O4)CC3)C1` (stereo partly drawn) [compound 275], for which the inhibition at 1.25 µM came to 72%. For the compound `Cc1oc(-c2ccsc2)nc1CC(=O)N1CCc2nc(NC(=O)[C@@H]3CCN(C#N)C3)sc2C1` [compound 343], the inhibition at 1.25 µM was determined as 74.3%. `Cc1ccc(Oc2ccc(C(=O)N3CCc4nc(NC(=O)[C@@H]5CCN(C#N)C5)sc4C3)nc2)cc1` [compound 316]: the inhibition at 1.25 µM was 85.7%. Consider `N#CN1CC[C@@H](C(=O)Nc2nc3c(s2)CN(C(=O)c2ccc(OCc4cccnc4)cc2)CC3)C1` [compound 317], for which the inhibition at 1.25 µM came to 76.2%.

Take `N#CN1CC[C@@H](C(=O)Nc2nc3c(s2)CN(C(=O)c2noc(Cc4ccccc4F)n2)CC3)C1` [compound 37]: the inhibition at 1.25 µM was found to be 73.8%. On the same count and under the same terms, as for `CNS(=O)(=O)c1ccc(-c2ccc(Cl)c(Cl)c2)c(C(=O)N2CCc3nc(NC(=O)[C@@H]4CCN(C#N)C4)sc3C2)c1` [compound 305], the figure is 74.8%.

In the case of `Cn1ncc(C(=O)N2CCc3nc(NC(=O)[C@@H]4CCN(C#N)C4)sc3C2)c1-n1cccc1` [compound 33], the inhibition at 1.25 µM came out at 87%. In the case of `CCC(C(=O)N1CCc2nc(NC(=O)[C@@H]3CCN(C#N)C3)sc2C1)n1nnc(-c2ccsc2)n1` (stereo partly drawn) [compound 25], the inhibition at 1.25 µM was 65.2%.

As for `N#CN1CC[C@@H](C(=O)Nc2nc3c(s2)CN(C(=O)c2csc(-c4cnc[nH]4)n2)CC3)C1` [compound 154], the inhibition at 1.25 µM came out at 77.3%. For the compound `Cc1cc(C(=O)N2CCc3nc(NC(=O)[C@@H]4CCN(C#N)C4)sc3C2)c(C2CC2)s1` [compound 91], the inhibition at 1.25 µM came to 82.6%. With `Cc1cc(C)n(-c2ccc(Cl)c(C(=O)N3CCc4nc(NC(=O)[C@@H]5CCN(C#N)C5)sc4C3)n2)n1` [compound 338], the inhibition at 1.25 µM was determined as 68.4%. As to `COc1cc(C(=O)N2CCc3nc(NC(=O)[C@@H]4CCN(C#N)C4)sc3C2)ccc1OCc1c(C)noc1C` [compound 63], the inhibition at 1.25 µM stood at 72.7%. Regarding `N#CN1CC[C@@H](C(=O)Nc2nc3c(s2)CN(C(=O)c2occc2CN2CCOCC2)CC3)C1` [compound 122], the inhibition at 1.25 µM amounted to 70.9%. As to `N#CN1CC[C@@H](C(=O)Nc2nc3c(s2)CN(C(=O)Cc2csc(COc4ccc(Cl)cc4)n2)CC3)C1` [compound 13], the inhibition at 1.25 µM was 75.4%.

On to `N#CN1CC[C@@H](C(=O)Nc2nc3c(s2)CN(C(=O)c2cc(-c4ccncc4)on2)CC3)C1` [compound 210], for which the inhibition at 1.25 µM stood at 63.9%. For `Cc1oc(Cn2cc(Br)cn2)cc1C(=O)N1CCc2nc(NC(=O)[C@@H]3CCN(C#N)C3)sc2C1` [compound 72], the inhibition at 1.25 µM came out at 87%. Turning to `N#CN1CC[C@@H](C(=O)Nc2nc3c(s2)CN(C(=O)c2ccc(OCn4cc(Cl)cn4)cc2)CC3)C1` [compound 147], the inhibition at 1.25 µM came to 82.4%. Same read-out and setting: as for `CN1C(=O)C[C@@H](C(=O)N2CCc3nc(NC(=O)[C@@H]4CCN(C#N)C4)sc3C2)[C@@H]1c1cccnc1` [compound 222], the figure is 63.8%.
